Measured values from US8148373B2, “Compounds” (AstraZeneca AB, priority 2008, dated 2012).
Where a name gives a salt, the structure may show the parent alone.

Legend:
[1] = target: T1, human muscarinic acetylcholine M3 receptor (M3-ACh) (Homo sapiens, UniProt P20309); test: Muscarinic 3 Receptor Binding Assay ([3H]NMS competition, SPA); conditions: [3H]NMS 0.1 nM, CHO-K1 cell membranes, 16 hours at room temperature; read-out: M3 pIC50 (converted)
T1 construct: expressed in transfected cells; host or cells: CHO-K1 (Chinese Hamster Ovary) cell membranes
T1 sequence (P20309 whole entry): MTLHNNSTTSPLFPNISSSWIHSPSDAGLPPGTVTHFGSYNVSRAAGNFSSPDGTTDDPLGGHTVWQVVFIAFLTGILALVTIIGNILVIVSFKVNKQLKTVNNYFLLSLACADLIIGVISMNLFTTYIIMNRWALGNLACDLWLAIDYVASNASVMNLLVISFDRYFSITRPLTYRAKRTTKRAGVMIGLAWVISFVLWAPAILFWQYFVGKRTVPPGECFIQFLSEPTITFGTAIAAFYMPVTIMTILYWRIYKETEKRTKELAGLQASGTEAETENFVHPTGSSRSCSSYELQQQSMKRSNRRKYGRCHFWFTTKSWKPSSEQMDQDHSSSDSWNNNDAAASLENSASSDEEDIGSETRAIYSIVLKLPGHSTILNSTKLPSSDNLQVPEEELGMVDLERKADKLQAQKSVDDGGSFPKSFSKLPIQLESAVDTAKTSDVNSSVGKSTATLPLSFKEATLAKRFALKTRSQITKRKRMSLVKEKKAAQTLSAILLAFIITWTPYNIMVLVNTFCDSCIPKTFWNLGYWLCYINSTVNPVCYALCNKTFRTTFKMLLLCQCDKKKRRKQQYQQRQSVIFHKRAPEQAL
Method in brief: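 Competition SPA binding of 0.1 nM [3H]NMS (quarter Kd) to membranes from CHO-K1 cells expressing human M3, in 20 mM HEPES pH 7.4, 5 mM MgCl2, 1% DMSO. Incubated 16 h at room temperature; non-specific binding with 1 µM atropine. pIC50 from 50% reduction of specific binding.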

[2] = target: T2, Adrenergic β2 (H292 cells) (Homo sapiens, UniProt P07550); test: Assay for Adrenergic β2 Mediated cAMP Production (concentration response, AlphaScreen cAMP detection); type: cell-based; conditions: for EC50: cAMP production, 60 minutes at room temperature, 300 μM rolipram, read-out: β2 pEC50 (converted); for β2 Intrinsic activity: fraction relative to the maximum activity determined for formoterol
T2 construct: endogenous in cells; host or cells: H292 cells
T2 sequence (P07550 whole entry): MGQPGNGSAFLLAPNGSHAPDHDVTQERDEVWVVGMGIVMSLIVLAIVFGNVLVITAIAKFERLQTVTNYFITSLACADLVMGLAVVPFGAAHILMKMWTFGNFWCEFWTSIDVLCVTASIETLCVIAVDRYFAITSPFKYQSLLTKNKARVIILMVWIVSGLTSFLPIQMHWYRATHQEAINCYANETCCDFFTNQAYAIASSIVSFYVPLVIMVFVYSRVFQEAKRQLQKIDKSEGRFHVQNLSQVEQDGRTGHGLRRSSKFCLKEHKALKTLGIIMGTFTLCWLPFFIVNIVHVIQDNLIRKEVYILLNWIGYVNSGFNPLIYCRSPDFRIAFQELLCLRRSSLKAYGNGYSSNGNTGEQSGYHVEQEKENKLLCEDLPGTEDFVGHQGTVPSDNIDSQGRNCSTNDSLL
Method in brief: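 Intrinsic activity is relative to the per-experiment formoterol maximum, with pEC50 from a four-parameter logistic fit of cAMP levels quantified by AlphaScreen against standards. Cells (H292) got 300 μM rolipram for 10 min, then compound for 60 min at room temperature, 1% DMSO final.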

IC50 [1] [nM] | EC50 [2] [nM] | β2 Intrinsic activity [2] | SMILES
20 | 12.6 | 0.9 | CC(C)c1csc(C(=O)N2CCOC3(CCN(Cc4cccc(CCNC[C@H](O)c5ccc(O)c6[nH]c(=O)sc56)c4F)CC3)C2)c1 [Example 74, (R)-7-(2-(2-Fluoro-3-((4-(4-isopropylthiophene-2-carbonyl)-1-oxa-4,9-diazaspiro[5.5]undecan-9-yl)methyl)phenethylamino)-1-hydroxyethyl)-4-hydroxybenzo[d]thiazol-2(3H)-one ditrifluoroacetate]
15.8 | 3.16 | 0.9 | CC(C)c1nc(C(=O)N2CC(F)(F)OC3(CCN(Cc4cc(CCNC[C@H](O)c5ccc(O)c6[nH]c(=O)ccc56)cs4)CC3)C2)cs1 [Example 51, (R)-5-(2-(2-(5-((2,2-Difluoro-4-(2-isopropylthiazole-4-carbonyl)-1-oxa-4,9-diazaspiro[5.5]undecan-9-yl)methyl)thiophen-3-yl)ethylamino)-1-hydroxyethyl)-8-hydroxyquinolin-2(1H)-one ditrifluoroacetate]
1.26 | 2000 | 0.4 | Cc1nc(C(=O)N2CCOC3(CCN(CCc4ccc(CNC[C@H](O)c5ccc(O)c6[nH]c(=O)ccc56)s4)CC3)C2)cs1 [Example 98, (R)-8-Hydroxy-5-(1-hydroxy-2-((5-(2-(4-(2-methylthiazole-4-carbonyl)-1-oxa-4,9-diazaspiro[5.5]undecan-9-yl)ethyl)thiophen-2-yl)methylamino)ethyl)quinolin-2(1H)-one ditrifluoroacetate]
2.51 | 63.1 | 1 | Cc1nc(C(=O)N2CCOC3(CCN(CCOc4cc(C)c(CNC[C@H](O)c5ccc(O)c6[nH]c(=O)sc56)cc4C)CC3)C2)cs1 [Example 18, (R)-7-(2-(2,5-Dimethyl-4-(2-(4-(2-methylthiazole-4-carbonyl)-1-oxa-4,9-diazaspiro[5.5]undecan-9-yl)ethoxy)benzylamino)-1-hydroxyethyl)-4-hydroxybenzo[d]thiazol-2(3H)-one ditrifluoroacetate]
7.94 | 7.94 | 0.9 | CC(C)c1ccc(C(=O)N2CCOC3(CCN(Cc4cccc(CCNC[C@H](O)c5ccc(O)c6[nH]c(=O)sc56)c4F)CC3)C2)s1 [Example 73, (R)-7-(2-(2-Fluoro-3-((4-(5-isopropylthiophene-2-carbonyl)-1-oxa-4,9-diazaspiro[5.5]undecan-9-yl)methyl)phenethylamino)-1-hydroxyethyl)-4-hydroxybenzo[d]thiazol-2(3H)-one ditrifluoroacetate]
3.16 | 2.51 | 1 | CC(C)c1nc(C(=O)N2CC(F)(F)OC3(CCN(Cc4cccc(CCNC[C@H](O)c5ccc(O)c6[nH]c(=O)ccc56)c4)CC3)C2)cs1 [Example 44, (R)-5-(2-(3-((2,2-Difluoro-4-(2-isopropylthiazole-4-carbonyl)-1-oxa-4,9-diazaspiro[5.5]undecan-9-yl)methyl)phenethylamino)-1-hydroxyethyl)-8-hydroxyquinolin-2(1H)-one ditrifluoroacetate]
15.8 | 2.51 | 0.9 | COC(=O)c1ccc(C(=O)N2CCOC3(CCN(Cc4cccc(CCNC[C@H](O)c5ccc(O)c6[nH]c(=O)sc56)c4)CC3)C2)s1 [Example 30, (R)-methyl 5-(9-(3-(2-(2-hydroxy-2-(4-hydroxy-2-oxo-2,3-dihydrobenzo[d]thiazol-7-yl)ethylamino)ethyl)benzyl)-1-oxa-4,9-diazaspiro[5.5]undecane-4-carbonyl)thiophene-2-carboxylate ditrifluoroacetate]
0.501 | 6.31 | 1 | CC(C)c1nc(C(=O)N2CCOC3(CCN(Cc4cc(CCNC[C@H](O)c5ccc(O)c6[nH]c(=O)sc56)cs4)CC3)C2)cs1 [Example 36, (R)-4-Hydroxy-7-(1-hydroxy-2-(2-(5-((4-(2-isopropylthiazole-4-carbonyl)-1-oxa-4,9-diazaspiro[5.5]undecan-9-yl)methyl)thiophen-3-yl)ethylamino)ethyl)benzo[d]thiazol-2(3H)-one ditrifluoroacetate]
3.16 | 7.94 | 0.8 | CC(C)c1cc(C(=O)N2CCOC3(CCN(Cc4cccc(CCNC[C@H](O)c5ccc(O)c6[nH]c(=O)sc56)c4F)CC3)C2)cs1 [Example 70, (R)-7-(2-(2-Fluoro-3-((4-(5-isopropylthiophene-3-carbonyl)-1-oxa-4,9-diazaspiro[5.5]undecan-9-yl)methyl)phenethylamino)-1-hydroxyethyl)-4-hydroxybenzo[d]thiazol-2(3H)-one ditrifluoroacetate]
20 | 50.1 | 1 | CC(C)c1nc(C(=O)N2CCOC3(CCN(CCC[S+]([O-])CCCCNC[C@H](O)c4ccc(O)c5[nH]c(=O)sc45)CC3)C2)cs1 (stereo partly drawn) [Example 282, 4-Hydroxy-7-((1R)-1-hydroxy-2-(4-(3-(4-(2-isopropylthiazole-4-carbonyl)-1-oxa-4,9-diazaspiro[5.5]undecan-9-yl)propylsulfinyl)butylamino)ethyl)benzo[d]thiazol-2(3H)-one formate]
200 | 6.31 | 0.9 | CC(C)c1cnc(C(=O)N2CCOC3(CCN(Cc4cc(F)cc(CCNC[C@H](O)c5ccc(O)c6[nH]c(=O)sc56)c4)CC3)C2)s1 [Example 54, (R)-7-(2-(3-Fluoro-5-((4-(5-isopropylthiazole-2-carbonyl)-1-oxa-4,9-diazaspiro[5.5]undecan-9-yl)methyl)phenethylamino)-1-hydroxyethyl)-4-hydroxybenzo[d]thiazol-2(3H)-one ditrifluoroacetate]
3.98 | 15.8 | 1 | CC(C)c1nc(C(=O)N2CCOC3(CCN(CCCCCC(C)(C)CCCNC[C@H](O)c4ccc(O)c5[nH]c(=O)sc45)CC3)C2)cs1 [Example 285, (R)-4-Hydroxy-7-(1-hydroxy-2-(9-(4-(2-isopropylthiazole-4-carbonyl)-1-oxa-4,9-diazaspiro[5.5]undecan-9-yl)-4,4-dimethylnonylamino)ethyl)benzo[d]thiazol-2(3H)-one formate]
2.51 | 7.94 | 1 | CCCc1nc(C(=O)N2CCOC3(CCN(Cc4cc(F)cc(CCNC[C@H](O)c5ccc(O)c6[nH]c(=O)sc56)c4)CC3)C2)cs1 [Example 56, (R)-7-(2-(3-Fluoro-5-((4-(2-propylthiazole-4-carbonyl)-1-oxa-4,9-diazaspiro[5.5]undecan-9-yl)methyl)phenethylamino)-1-hydroxyethyl)-4-hydroxybenzo[d]thiazol-2(3H)-one ditrifluoroacetate]
0.631 | 7.94 | 1 | CC(C)c1nc(C(=O)N2CCOC3(CCN(Cc4cc(F)cc(CCNC[C@H](O)c5ccc(O)c6[nH]c(=O)sc56)c4)CC3)C2)cs1 [Example 42, (R)-7-(2-(3-Fluoro-5-((4-(2-isopropylthiazole-4-carbonyl)-1-oxa-4,9-diazaspiro[5.5]undecan-9-yl)methyl)phenethylamino)-1-hydroxyethyl)-4-hydroxybenzo[d]thiazol-2(3H)-one ditrifluoroacetate]
2 | 1.26 | 0.7 | CCc1cc(C(=O)N2CCOC3(CCN(Cc4cccc(CCNC[C@H](O)c5ccc(O)c6[nH]c(=O)sc56)c4F)CC3)C2)cs1 [Example 91, (R)-7-(2-(3-((4-(5-Ethylthiophene-3-carbonyl)-1-oxa-4,9-diazaspiro[5.5]undecan-9-yl)methyl)-2-fluorophenethylamino)-1-hydroxyethyl)-4-hydroxybenzo[d]thiazol-2(3H)-one ditrifluoroacetate]
31.6 | 1.58 | 1 | Cc1nc(C(=O)N2CCOC3(CCN(Cc4cccc(CCNC[C@H](O)c5ccc(O)c6[nH]c(=O)sc56)c4)CC3)CC2)cs1 [Example 89, (R)-4-Hydroxy-7-(1-hydroxy-2-(3-((10-(2-methylthiazole-4-carbonyl)-7-oxa-3,10-diazaspiro[5.6]dodecan-3-yl)methyl)phenethylamino)ethyl)benzo[d]thiazol-2(3H)-one ditrifluoroacetate]
5.01 | 316 | 0.9 | Cc1nc(C(=O)N2CCOC3(CCN(CCOc4cccc(CNC[C@H](O)c5ccc(O)c6[nH]c(=O)sc56)c4)CC3)C2)cs1 [Example 10, (R)-4-Hydroxy-7-(1-hydroxy-2-(3-(2-(4-(2-methylthiazole-4-carbonyl)-1-oxa-4,9-diazaspiro[5.5]undecan-9-yl)ethoxy)benzylamino)ethyl)benzo[d]thiazol-2(3H)-one ditrifluoroacetate]
50.1 | 7.94 | 0.8 | CC(C)c1cccc(C(=O)N2CCOC3(CCN(Cc4cccc(CCNC[C@H](O)c5ccc(O)c6[nH]c(=O)sc56)c4F)CC3)C2)n1 [Example 85, (R)-7-(2-(2-Fluoro-3-((4-(6-isopropylpicolinoyl)-1-oxa-4,9-diazaspiro[5.5]undecan-9-yl)methyl)phenethylamino)-1-hydroxyethyl)-4-hydroxybenzo[d]thiazol-2(3H)-one ditrifluoroacetate]
